Entries after “also recorded” stand apart in the source; their conditions may differ.
Assays:
[1] = test system: CD47; test: Flow cytometry, anti-human CD47 CC2C6 antibody binding on SK-OV-3 cell surface; assay type: cell-based
Method: Binding between CD47 and SIRPα was studied by measuring the level of CD47 binding using any suitable method. Flow cytometric analysis is useful to quantify the level of binding of CD47 to antibody CC2C6, which is then subjected to an immune-staining procedure using fluorochrome-conjugated secondary antibody followed by analysis of the immune-staining signal with a flow cytometry instrument to obtain the level of the CD47-CC2C6 binding. In another method, analysis of CD47 is performed using SIRPα-Fc formed from SIRPα fused with human IgG1, which is then subjected to an immune-staining procedure using fluorochrome-conjugated secondary antibody against human IgG1, followed by analysis of the immune-staining signal. SIRPα is expressed on the surface of a myeloid cell such as macrophage, monocyte, neutrophil, or dendritic cell. Alternatively, SIRPα is fused with human IgG1 to form a SIRPα-Fc recombinant protein. […] An anti-cancer agent (e.g., rituximab) can be used together with a compound of formula (I). Useful anti-cancer agents are described above including anti-PD-L1 antibodies, anti-CD20 antibodies, anti-HER2 antibodies, anti-EGFR antibodies, and anti-CD47 antibodies. Other suitable anti-cancer agents are chemotherapeutic agents such as doxorubicin, epirubicin, idarubicin, methotrexate, mitoxantrone, oxaliplatin, and cyclophosphamide.
SK-OV-3 cells were purchased from ATCC (Manassas, Va.). SK-OV-3 cells were maintained at 37° C. under 5% CO2 in McCoy's 5a medium (Gibco, ThermoFisher, Waltham, Mass.) with 10% fetal bovine serum (FBS) (Sigma-Aldrich, St Louis, Mo.), and 2 mM L-glutamine.
(§1) Antibody conjugates and extracellular domain of SIRPα used to analyze cell surface CD47 binding include anti-human CD47 CC2C6, 2D3, recombinant human SIRPα/CD172a Fc chimer protein, and anti-human IgG Fc. To determine inhibition of CD47 binding, cancer cells were treated with compounds of formula (I) at various concentrations for 4 days. Thereafter, the cells were washed with PBS containing 0.5% BSA (FACS buffer) followed by incubation with fluorochrome-labeled antibodies to human CD47 (i.e., CC2C6 and 2D3) at 1:50 dilution in FACS buffer for 30 minutes at 4° C. Compounds of formula (I) produced a dose-dependent inhibition of anti-CD47 CC2C6 antibody that recognized CD47 and SIRPα binding site on the tumor cell surface including B-cell lymphoma Raji cells, colon cancer cells DLD-1, and ovarian cancer SK-OV-3 cells (see FIGS. 1A, 1B, and 1C, respectively).

[2] = test system: CD47; test: Flow cytometry, anti-human CD47 2D3 control antibody binding on Raji cell surface; assay type: cell-based; details: Raji cells
Method: as §1

[3] = test system: human B-cell lymphoma Raji xenograft tumor; test: Raji xenograft anti-tumor efficacy and survival study (3 weeks treatment); assay type: in vivo, NOD/SCID mice; details: Compound 34 100 mg/kg p.o. QD*5, rituximab 10 mg/kg i.p. 2QW
Text: Human B-cell lymphoma Raji cells were used to evaluate the efficacy of Compound 34 and rituximab in treating cancer cells. Prior to injection into animals, the cancer cells were detected as free of Mycoplasma spp. NOD/SCID mice (BioLasco, Taiwan) were used for in vivo experiments due to their higher affinity of SIRPα to human CD47. The mice used in these studies were housed in Institutional Animal Care and Use Committees-approved facility at National Health Research Institutes in accordance with guidelines for the care and use of laboratory animals.
One million Raji cells in culture medium and matrigel (1:1, v/v) were injected subcutaneously into the left flank region of the mice (n=7 to 10 animals per group). Treatments were initiated after randomization with inclusion of tumors at approximately 100 mm^3. A dosing vehicle for Compound 34 was prepared using 10% DMA: 40% PEG400: 50% (1% CMC) (v/v/v) and was dosed orally (p.o.) at 100 mg/kg once a day, 5 days a week (Q.D.*5). Rituximab (Roche-Genentech, South San Francisco, Calif.) stock solution was diluted with PBS and dosed at 10 mg/kg twice a week (2QW) by intraperitoneal (i.p.) injection.
To evaluate anti-tumor efficacy and survival rates, mice were treated with vehicle control, 10 mg/kg rituximab (2QW, i.p.), 100 mg/kg Compound 34 (QD*5), or rituximab in combination with Compound 34. Treatment was discontinued at the end of 3 weeks. The mice were monitored for cancer growth and body weight once a week. Cancer growth was measured by volume with an electronic caliper. The volume was calculated as L×W^2/2, in which L is the length of the tumor and W is its width. Tumor size and animal body weight were measured once a week after cancer cell inoculation. Cancer response at the end of the study was calculated as tumor growth inhibition (TGI) using (1−T/C)*100, in which T is the mean tumor volume (mm^3) of the test group, and C is the mean tumor volume (mm^3) of the vehicle-treated group. […] For the survival study, treatment was discontinued at the end of 3 weeks. Thereafter, mice were followed up for tumor growth and body weight once a week. The mice were then sacrificed when tumor volume reached 2,000 mm^3 or body weight loss was greater than 10%. Kaplan-Meier plots were used as the study end point to calculate percentage of animals remaining in the study in term of the time. The median survival days for vehicle control and Compound 34 were 15.5 days and 18 days, respectively (FIG. 5E). Rituximab prolonged median survival days to 28 days after treatment discontinued (FIGS. 5C and 5E). Importantly, the combination of rituximab and Compound 34 further prolonged median survival days to 47 days (FIGS. 5D and 5E).

O=C1NC[C@H](c2ccc(-c3csc(C(F)(F)F)c3)c(F)c2F)N1c1ccc2[nH]cnc2c1 [Compound 34]
IC50 ([1]; Ovarian Cancer (SK-OV3 cells), 4 days treatment, read-out: IC50, inhibition of CC2C6 binding): 0.19 µM
inhibition of binding of anti-human CD47 antibody CC2C6 (in words) ([1]; SK-OV-3 cells): effectively inhibited
inhibition of binding of anti-human CD47 antibody 2D3 (in words) [2]: not by anti-CD47 control antibody 2D3; also recorded: did not inhibit
tumor growth inhibition (TGI, % of control) ([3]; 3 weeks): 41.4%
median survival days ([3]; treatment discontinued at 3 weeks): 18 days

Source: US20230097801A1, “METHODS OF INCREASING CELL PHAGOCYTOSIS” (National Health Research Institutes, priority 2021, published 2023)
